Each structure is given as a SMILES string. Bounds are passed on as bounds.

We go through 14 compounds from US20140303164A1, “THERAPEUTIC COMPOUNDS” (Gilead Sciences, Inc., priority 2013, published 2014).

Data set [1] in a line: Test B: Cytotoxicity Assay. As to conditions: human, uninfected MT-4 cells, same protocol as Test A. It is filed as cell-based. The protocol:
(§1) MT-4 cells were next mixed with HIV-IIIb at an m.o.i of 0.003 for 1 hour, after which time 35 μL of virus/cell mixture (2000 cells) was immediately added to each well containing 40 μL of diluted compound. The plates were then incubated at 37° C. for 5 days. […] Cell lysis was carried out by incubating at room temperature for 10 min and then chemiluminescence was read.
Test B: Cytotoxicity Assay
Compound cytotoxicity and the corresponding CC50 values was determined using the same protocol as described in the antiviral assay (Test A) except that uninfected cells were used.

The next data set concerns HIV-IIIb. As to the kind of experiment: Test A: Antiviral Assay in MT4 Cells. The class given is cell-based, HIV-1. As to conditions: for inhibition at 0.2 µM / inhibition at 2 µM: Human immunodeficiency virus 1, IIIB, MT4, 120 h; for inhibition at 0.2 µM: read-out: % inhibition at 0.2 μM; for inhibition at 2 µM: read-out: % inhibition at 2 μM. The protocol:
Test A: Antiviral Assay in MT4 Cells
as §1

Take `C[C@@H](O)C#Cc1ccc(-c2ccc(Cl)c3c(NS(C)(=O)=O)nn(C)c23)c([C@H](Cc2cc(F)cc(F)c2)NC(=O)Cn2nc(C(F)F)c3c2C(F)(F)[C@@H]2C[C@H]32)n1` [Compound 143, N—((S)-1-(3-(4-chloro-1-methyl-3-(methylsulfonamido)-1H-indazol-7-yl)-6-((R)-3-hydroxybut-1-yn-1-yl)pyridin-2-yl)-2-(3,5-difluorophenyl)ethyl)-2-((3b-S,4aR)-3-(difluoromethyl)-5,5-difluoro-3b,4,4a,5-tetrahydro-1H-cyclopropa[3,4]cyclopenta[1,2-c]pyrazol-1-yl)acetamide]: the CC50 (in general, the concentration at which the toxic effect on the cells reaches its halfway point) at 5 days in data set [1] stood at 11.3 µM. In the data set with HIV-IIIb, the inhibition (commonly how much of the control response was suppressed) at 0.2 µM turned out to be 98% and the inhibition at 2 µM was 98%.
In turn, `Cn1nc(NS(=O)(=O)c2cn[nH]c2)c2cccc(-c3ccc(C#CC(C)(C)O)nc3[C@H](Cc3cc(F)cc(F)c3)NC(=O)Cn3nc(C(F)(F)F)c4c3C(F)(F)[C@@H]3C[C@H]43)c21` [Compound 49, 2-((3bS,4aR)-5,5-difluoro-3-(trifluoromethyl)-3b,4,4a,5-tetrahydro-1H-cyclopropa[3,4]cyclopenta[1,2-c]pyrazol-1-yl)-N—((S)-2-(3,5-difluorophenyl)-1-(6-(3-hydroxy-3-methylbut-1-yn-1-yl)-3-(1-methyl-3-(1H-pyrazole-4-sulfonamido)-1H-indazol-7-yl)pyridin-2-yl)ethyl)acetamide] returned a CC50 at 5 days in data set [1] of 24 µM. Further, in the data set on HIV-IIIb, the inhibition at 0.2 µM is 87% and the inhibition at 2 µM came out at 87%.
In data set [1], `C#Cc1ccc(-c2ccc(Cl)c3cnn(C)c23)c([C@H](Cc2cc(F)cc(F)c2)NC(=O)Cn2nc(C(F)F)c3c2C(F)(F)[C@@H]2C[C@H]32)n1` [Compound 136D, N—((S)-1-(3-(4-chloro-1-methyl-1H-indazol-7-yl)-6-ethynylpyridin-2-yl)-2-(3,5-difluorophenyl)ethyl)-2-((3b-S,4aR)-3-(difluoromethyl)-5,5-difluoro-3b,4,4a,5-tetrahydro-1H-cyclopropa[3,4]cyclopenta[1,2-c]pyrazol-1-yl)acetamide] came in with a CC50 at 5 days of 7.43 µM.
`Cn1nc(NS(=O)(=O)C(F)(F)F)c2c(Cl)ccc(-c3ccc(C#CC(C)(C)O)nc3[C@H](Cc3cc(F)cc(F)c3)NC(=O)Cn3nc(C(F)F)c4c3C(F)(F)[C@@H]3C[C@H]43)c21` [Compound 171D, N—((S)-1-(3-(4-chloro-1-methyl-3-(trifluoromethylsulfonamido)-1H-indazol-7-yl)-6-(3-hydroxy-3-methylbut-1-yn-1-yl)pyridin-2-yl)-2-(3,5-difluorophenyl)ethyl)-2-((3b-S,4aR)-3-(difluoromethyl)-5,5-difluoro-3b,4,4a,5-tetrahydro-1H-cyclopropa[3,4]cyclopenta[1,2-c]pyrazol-1-yl)acetamide] returned a CC50 at 5 days in data set [1] of over 42.5 µM.
In data set [1], `Cn1nc(NS(C)(=O)=O)c2cccc(-c3cnc([C@H](Cc4cc(F)cc(F)c4)NC(=O)Cn4nc(C(F)F)c5c4C(F)(F)[C@@H]4C[C@H]54)c(-c4cccc5c(NS(C)(=O)=O)nn(C)c45)n3)c21` [Compound 146I, N—((S)-1-(3,5-bis(1-methyl-3-(methylsulfonamido)-1H-indazol-7-yl)pyrazin-2-yl)-2-(3,5-difluorophenyl)ethyl)-2-((3b-S,4aR)-3-(difluoromethyl)-5,5-difluoro-3b,4,4a,5-tetrahydro-1H-cyclopropa[3,4]cyclopenta[1,2-c]pyrazol-1-yl)acetamide] displayed a CC50 at 5 days of 33.5 µM.
Turning to `Cn1nc(N[S+](C)[O-])c2c(Cl)ccc(-c3ccc(C#CC(C)(C)O)nc3[C@H](Cc3cc(F)cc(F)c3)NC(=O)Cn3nc(C(F)F)c4c3C(F)(F)[C@@H]3C[C@H]43)c21` (stereo partly drawn) [Compound 180C, N-((1S)-1-(3-(4-chloro-1-methyl-3-(methylsulfinamido)-1H-indazol-7-yl)-6-(3-hydroxy-3-methylbut-1-yn-1-yl)pyridin-2-yl)-2-(3,5-difluorophenyl)ethyl)-2-((3b-S,4aR)-3-(difluoromethyl)-5,5-difluoro-3b,4,4a,5-tetrahydro-1H-cyclopropa[3,4]cyclopenta[1,2-c]pyrazol-1-yl)acetamide], in the data set on HIV-IIIb, the inhibition at 0.2 µM amounted to 100% and the inhibition at 2 µM stood at 100%.
Turning to `Cn1nc(NS(C)(=O)=O)c2c(Cl)ccc(-c3ccc(C#CC(C)(C)O)nc3[C@H](Cc3cc(F)cc(F)c3)NC(=O)Cn3nc(C(F)F)c4c3C(F)(F)[C@@H]3C[C@H]43)c21` [Compound 19G, (S)—N-(1-(3-(4 chloro-1-methyl-3-(methylsulfonamido)-1H-indazol-7-yl)-6-(3-hydroxy-3-methylbut-1-ynyl)pyridin-2-yl)-2-(3,5-difluorophenyl)ethyl)-2-((3bS,4aR)-5,5-difluoro-3-(difluoromethyl)-3b,4,4a,5-tetrahydro-1H-cyclopropa[3,4]cyclopenta[1,2-c]pyrazol-1-yl)acetamide], in the data set on HIV-IIIb, the inhibition at 0.2 µM amounted to 97% and the inhibition at 2 µM is 93%.
`CC(C)(O)C#Cc1ccc(-c2cccc3c2CNC3=O)c([C@H](Cc2cc(F)cc(F)c2)NC(=O)Cn2nc(C(F)(F)F)c3c2C(F)(F)[C@@H]2C[C@H]32)n1` [Compound 15, 2-((3bS,4aR)-5,5-difluoro-3-(trifluoromethyl)-3b,4,4a,5-tetrahydro-1H-cyclopropa[3,4]cyclopenta[1,2-c]pyrazol-1-yl)-N—((S)-2-(3,5-difluorophenyl)-1-(6-(3-hydroxy-3-methylbut-1-yn-1-yl)-3-(1-oxoisoindolin-4-yl)pyridin-2-yl)ethyl)acetamide]: the % inhibition (as a rule, how much of the control response was suppressed) at 2 μM in the data set with HIV-IIIb (percent inhibition of virus-induced cell killing at 2 μM drug concentration, from dose response curve, MT-4 cells, HIV-IIIb, 5 days, values above 100 normalized to 100) was determined as 94%.
Regarding `O=C(Cn1nc(C(F)F)c2c1C(F)(F)CCC2(F)F)N[C@@H](Cc1cc(F)cc(F)c1)c1nc(-c2cnc3[nH]ccc3c2)ccc1-c1cnc2[nH]ccc2c1` [Compound 7, (S)—N-(1-(3,6-bis(1H-pyrrolo[2,3-b]pyridin-5-yl)pyridin-2-yl)-2-(3,5-difluorophenyl)ethyl)-2-(3-(difluoromethyl)-4,4,7,7-tetrafluoro-4,5,6,7-tetrahydro-1H-indazol-1-yl)acetamide], the inhibition at 0.2 µM with HIV-IIIb came to 8%.
As for `Cn1nc(NS(C)(=O)=O)c2c(Cl)ccc(-c3ccc(C#CC(C)(C)O)nc3[C@H](Cc3cc(F)cc(F)c3)NC(=O)Cn3nc(C(F)(F)F)c4c3C(F)(F)[C@@H]3C[C@H]43)c21` [Compound 78, N—((S)-1-(3-(4-chloro-1-methyl-3-(methylsulfonamido)-1H-indazol-7-yl)-6-(3-hydroxy-3-methylbut-1-yn-1-yl)pyridin-2-yl)-2-(3,5-difluorophenyl)ethyl)-2-((3b-S,4aR)-5,5-difluoro-3-(trifluoromethyl)-3b,4,4a,5-tetrahydro-1H-cyclopropa[3,4]cyclopenta[1,2-c]pyrazol-1-yl)acetamide], in the data set on HIV-IIIb, the inhibition at 0.2 µM turned out to be 98% and the inhibition at 2 µM was found to be 98%.
For the compound `CC(C)(O)C#Cc1ccc(-c2ccc3c(c2)C(=O)NC32CC2)c([C@H](Cc2cc(F)cc(F)c2)NC(=O)Cn2nc(C(F)(F)F)c3c2C(F)(F)[C@@H]2C[C@H]32)n1` [Compound 3D, 2-((3bS,4aR)-5,5-difluoro-3-(trifluoromethyl)-3b,4,4a,5-tetrahydro-1H-cyclopropa[3,4]cyclopenta[1,2-c]pyrazol-1-yl)-N—((S)-2-(3,5-difluorophenyl)-1-(6-(3-hydroxy-3-methylbut-1-yn-1-yl)-3-(3′-oxospiro[cyclopropane-1,1′-isoindolin]-5′-yl)pyridin-2-yl)ethyl)acetamide], the inhibition at 0.2 µM in the data set on HIV-IIIb stood at 82%.
`Cn1nc(NS(C)(=O)=O)c2c(Cl)ccc(-c3ccc(C#CC(C)(C)O)nc3[C@H](Cc3cc(F)cc(F)c3)NC(=O)Cn3nc(C(=O)O)c4c3C(F)(F)[C@@H]3C[C@H]43)c21` [Compound 147, (3bS,4aR)-1-(2-(((S)-1-(3-(4-chloro-1-methyl-3-(methylsulfonamido)-1H-indazol-7-yl)-6-(3-hydroxy-3-methylbut-1-yn-1-yl)pyridin-2-yl)-2-(3,5-difluorophenyl)ethyl)amino)-2-oxoethyl)-5,5-difluoro-3b,4,4a,5-tetrahydro-1H-cyclopropa[3,4]cyclopenta[1,2-c]pyrazole-3-carboxylic acid] displayed a CC50 at 5 days in data set [1] of over 53.2 µM.
As for `Cc1ccc(-c2ccc(C#CC(C)(C)O)nc2[C@H](Cc2cc(F)cc(F)c2)NC(=O)Cn2nc(C(F)F)c3c2C(F)(F)[C@@H]2C[C@H]32)c2c1c(NS(C)(=O)=O)nn2C` [Compound 112D, 2-((3b-S,4aR)-3-(difluoromethyl)-5,5-difluoro-3b,4,4a,5-tetrahydro-1H-cyclopropa[3,4]cyclopenta[1,2-c]pyrazol-1-yl)-N—((S)-2-(3,5-difluorophenyl)-1-(3-(1,4-dimethyl-3-(methylsulfonamido)-1H-indazol-7-yl)-6-(3-hydroxy-3-methylbut-1-yn-1-yl)pyridin-2-yl)ethyl)acetamide], in the data set with HIV-IIIb, the inhibition at 0.2 µM turned out to be 97% and the inhibition at 2 µM came out at 97%.
Consider `CC(C)(O)C#Cc1ccc(-c2cccc3c(=O)[nH]cnc23)c([C@H](Cc2cc(F)cc(F)c2)NC(=O)Cn2nc(C(F)(F)F)c3c2C(F)(F)[C@@H]2C[C@H]32)n1` [Compound 2, 2-((3bS,4aR)-5,5-difluoro-3-(trifluoromethyl)-3b,4,4a,5-tetrahydro-1H-cyclopropa[3,4]cyclopenta[1,2-c]pyrazol-1-yl)-N—((S)-2-(3,5-difluorophenyl)-1-(6-(3-hydroxy-3-methylbut-1-yn-1-yl)-3-(4-oxo-3,4-dihydroquinazolin-8-yl)pyridin-2-yl)ethyl)acetamide], for which the inhibition at 0.2 µM in the data set with HIV-IIIb amounted to 79%.
